What was measured:
wild-type viruses = assay: Antiviral assays, range over wild-type viruses; type: cell-based, HIV-1; settings: Human immunodeficiency virus 1, read-out: EC50 against wild-type viruses
MDR viruses = assay: Antiviral assays, range over MDR viruses; type: cell-based, HIV-1

Structure (SMILES) | EC50 (wild-type viruses) [nM] | loss of potency against MDR viruses (MDR viruses; relative to wild-type viruses) | antiviral potency against the MDR HIV-1 variants, better than LPV (MDR viruses; compared with LPV) [fold]
CC(C)CN(C[C@@H](O)[C@H](Cc1ccccc1)NC(=O)[C@@H]1CN(c2ccccc2)C(=O)O1)S(=O)(=O)c1ccc2ncsc2c1 [15d] | 14 to 41 | about 6 fold | –
CC(=O)c1cccc(N2C[C@@H](C(=O)N[C@@H](Cc3ccccc3)[C@H](O)CN(CC(C)C)S(=O)(=O)c3ccc4ncsc4c3)OC2=O)c1 [26d] | 4.2 to 10.1 | – | –
CC(C)CN(C[C@@H](O)[C@H](Cc1ccccc1)NC(=O)[C@@H]1CN(c2cccc(S(C)(=O)=O)c2)C(=O)O1)S(=O)(=O)c1ccc2ncsc2c1 [27d] | 3.5 to 5.7 | – | –
COC(=O)Nc1cccc(N2C[C@@H](C(=O)N[C@@H](Cc3ccccc3)[C@H](O)CN(CC(C)C)S(=O)(=O)c3ccc4ncsc4c3)OC2=O)c1 [31d] | 1.2 to 3 | – | 3

Reference: paper PMC2996262 (Journal of medicinal chemistry, 2010)
